How the values were obtained:
[1] = molar heat capacity at constant pressure; details: 101.33 kPa, Crystal, Small sample (50 mg) DSC
[2] = molar heat capacity at constant pressure; an = ratio of the nth substance listed; details: 100 kPa, Crystal of intercomponent compound 1, Small sample (50 mg) DSC, a2 = 25

[Bi+3].[Bi+3].[O-2].[O-2].[O-2] [bismuth oxide]
[1]
Details | molar heat capacity at constant pressure [J/K/mol]
333 K | 115.4
353 K | 117
403 K | 120.1
453 K | 122.4
503 K | 124.6
553 K | 126.5
603 K | 128
653 K | 129.7
703 K | 131.4
753 K | 132.7
778 K | 133.2
803 K | 133.3
813 K | 133.5

[Fe+3].[Fe+3].[O-2].[O-2].[O-2] [ferric oxide] + [Bi+3].[Bi+3].[O-2].[O-2].[O-2]
[2]
Details | molar heat capacity at constant pressure [J/K/mol]
308 K | 1355.9
353 K | 1430.1
403 K | 1482.3
453 K | 1520.3
503 K | 1543.9
553 K | 1563.9
603 K | 1587.1
653 K | 1610.4
703 K | 1628.1
753 K | 1644.7
803 K | 1658.4
818 K | 1662.7

— the NIST ThermoML archive (doi:10.1016/j.jct.2017.11.015)
